Legend:
[1] = target: T1, recombinant, full length AKT1/PKBα (Homo sapiens, UniProt P31749); experiment: In vitro inhibition of recombinant AKT (GSK-3 fusion protein phosphorylation); format: biochemical; conditions: 5 μM, pre-incubated two hours on ice
T1 construct: active, recombinant, full length AKT1/PKBα protein; purchased Upstate Biotechnology, Lake Placid, N.Y
Method: In vitro inhibition of recombinant AKT. In vitro kinase assays can be performed using an active, recombinant, full length AKT1/PKBα protein (available from Upstate Biotechnology, Lake Placid, N.Y.) or with an active, recombinant AKT1/PKBα protein, referred to herein as AKT1ΔPH, that lacks the pleckstrin homology domain (also available from Upstate Biotechnology). 10 ng of the recombinant enzyme in 25 μl 1× kinase buffer (25 mM Tris, pH 7.5; 5 mM β-glycerol phosphate; 2 mM dithiothreitol; 0.1 mM Na3VO4; and 10 mM MgCl2) is mixed with 2.5 μl of DMSO and a test compound (5 μM). […] After incubating the suspensions at 30° C. for 30 minutes, the reaction can be terminated by the addition of 3×SDS sample buffer (187.5 mM Tris-HCl, pH 6.8; 6% SDS; 30% glycerol; 150 mM dithiothreitol; and 0.03% bromophenol blue). The samples are then boiled for five minutes. The proteins can be separated on a 12% SDS polyacrylamide gel, and subsequently transferred to a nitrocellulose membrane. The membranes are preferably incubated with rabbit polyclonal anti-phospho-GSK-3α/β (Ser21/9) antibody (available from Cell Signaling Technology, Beverly, Mass., catalog # 9331).
The phosphorylation status of GSK-3 protein can also be used to study the AKT inhibitory activity of phenoxazines (including the phenoxazine compounds listed in Table I above) and acridone compounds. […]

Rh18 cells = experiment: Determination of apoptosis (Annexin V-FITC/propidium iodide flow cytometry), Rh18 cells; conditions: Rh18, 7.5 μM, four days, n = 3
Method: Determination of apoptosis. An ApoAlert™ Annexin V-FITC Apoptosis kit (available from Clontech, Palo Alto, Calif.) can be used to evaluate the extent of apoptosis within cell populations. Cells (Rh1: 350,000 per 75-cm^2 flask; Rh18: 800,000 per 75-cm^2 flask; or Rh30: 500,000 per 75-cm^2 flask) are preferably grown overnight in complete medium. On day 1, cells are treated with DMSO (0.1%; vehicle control) or with a test compound (e.g., a phenoxazine or acridone compound). After 4 days, the cells are trypsinized, washed with PBS, and resuspended in 200 μl of binding buffer. Cells are then incubated with 10 μl of annexin V-FITC (final concentration, 1 μg/ml) and 500 ng of propidium iodide in a final volume of 410 μl. Cells are preferably incubated at room temperature in the dark for ten minutes before flow cytometric analysis with an FACSCalibur™ Flow Cytometry System (Becton Dickinson, San Jose, Calif.).
For instance, Rh1, Rh18 and/or Rh30 cells can be grown in complete medium with 0.1% DMSO (as a negative control) or with one or more test compounds, e.g., any of the phenoxazine compounds listed in Table I, above, including but not limited to the compounds 10B, 11B, 13B, 14B or 15B. […] Cells are then harvested, and the extent of apoptosis evaluated, e.g., by an ApoAlert™ (Clontech, Palo Alto, Calif.) flow cytometric assay.

[2] = tested on: mTOR (Ser2448 and Ser2481), rpS6 (Ser235/236) and p70S6 kinase (Thr389); experiment: IGF-I induced phosphorylation of AKT downstream targets in Rh1 cells, Western blot; format: cell-based, human; conditions: 3.5 to 5.0 μM, 1 hour, Rh1 cells serum-free, IGF-I 10 minutes
Method: Cellular screening for inhibitors. Rh1, Rh18 and Rh30 cells can each be seeded at a density of 4×10^6/10-cm plate in serum-free medium for overnight attachment. The cells can then be exposed to 0.1% DMSO or to a test compound (for example, a phenoxazine or acridone compound) for one hour, then stimulated with Insulin-like growth factor-I (IGF-I) (10 ng/ml) for 10 minutes.
Western blot analysis. Cells are rapidly washed with ice-cold phosphate-buffered saline (PBS), placed on ice, and lysed in mammalian protein extraction reagent (M-PER; available from Pierce, Rockford, Ill.) containing one Complete™ mini protease inhibitor tablet (available from Boehringer Mannheim, Mannheim, Germany), 1 mM phenylmethylsulfonyl fluoride, 1 mM Na3VO4 and 1 mM NaF. Cellular debris is pelleted by centrifugation at 17,500×g for 10 minutes at 4° C. The protein concentration of the supernatants is measured by the bicinchoninic acid assay (e.g., using the BCA™ Protein Assay Kit, Pierce, Rockford, Ill., catalog number 23225 or 23227) using bovine serum albumin as the standard.
For the analysis of AKT, ERK-1/2, mTOR, p70S6 kinase, ribosomal protein S6 (rpS6 or S6), and glycogen synthase kinase 3 (GSK-3), equivalent amounts of protein can be separated on a 12% SDS-polyacrylamide gel (available from BioRad, Hercules, Calif.) by electrophoresis and subsequently transferred to a nitrocellulose membrane (also available from BioRad). […]

T1 sequence (P31749 whole entry, the tested form may be a part): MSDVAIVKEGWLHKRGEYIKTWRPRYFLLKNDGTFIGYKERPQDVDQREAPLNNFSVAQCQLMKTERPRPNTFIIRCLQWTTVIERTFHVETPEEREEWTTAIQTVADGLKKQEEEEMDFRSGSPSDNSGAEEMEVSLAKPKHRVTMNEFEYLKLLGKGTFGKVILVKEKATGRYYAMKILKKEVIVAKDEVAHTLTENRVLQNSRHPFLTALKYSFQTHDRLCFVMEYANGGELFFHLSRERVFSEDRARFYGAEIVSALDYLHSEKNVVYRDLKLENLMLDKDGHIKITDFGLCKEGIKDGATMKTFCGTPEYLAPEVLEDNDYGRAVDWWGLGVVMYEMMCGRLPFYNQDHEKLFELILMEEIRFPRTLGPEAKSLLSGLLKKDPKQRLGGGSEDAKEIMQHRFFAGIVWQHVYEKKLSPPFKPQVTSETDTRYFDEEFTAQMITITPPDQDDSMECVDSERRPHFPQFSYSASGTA

Compound | inhibition of GSK-3 phosphorylation by recombinant AKT [1] | Percentage of cells ± SD, Apoptotic (Rh18 cells) [%] | inhibition of IGF-I induced phosphorylation of mTOR, rpS6 and p70S6 kinase [2] | Percentage of cells ± SD, Viable (Rh18 cells) [%]
10-[4′-[(β-hydroxyethyl)piperazino]butyl]-2-chlorophenoxazine [Compound 15B] | completely blocked | 32.70 ± 8.99 | markedly inhibited | –
CCN(CC)CCCCN1c2ccccc2Oc2ccc(Cl)cc21 [Compound 10B, 10-[4′-(N-diethylamino)butyl]-2-chlorophenoxazine] | at least nearly complete | 34.33 ± 6.13 | markedly inhibited | 65.00 ± 2.94

— patent publication US20060241108A1, “Substituted phenoxazines and acridones as inhibitors of AKT” (St. Jude Children's Research Hospital, priority 2005, published 2006)
